Assay results as given in patent US20230279016A1, “Tetrahydropyrazolopyrimidines and Related Analogs for Inhibiting YAP/TAZ-TEAD” (THE KATHOLIEKE UNIVERSITEIT LEUVEN, priority 2021, published 2023).

Tested on: YAP/TAZ-TEAD transcription
Test: Reporter gene assay for measuring the inhibition of YAP/TAZ-TEAD transcription (TEAD-responsive element luciferase reporter in Hek293T cells)
Assay type: cell-based
Conditions: Hek293T cells transiently transfected with TEAD-responsive element luciferase reporter, 24 hours incubation
Description: Hek293T cells are cultured in DMEM supplemented with 10% fetal bovine serum, Sodium pyruvate, Sodium bicarbonate, L-glutamine. The cells are harvested and transiently transfected with TEAD-responsive element luciferase reporter. Transfected cells are plated in 384-wells plate containing pre-diluted compounds. After 24 hours incubation at 37° C./5%CO2, assay plates were cooled down to RT and levelled to an equal volume per well, prior to the addition of 25 uL luciferase substrate SteadyLite (Perkin Elmer)/well. The plate was shaken for 10 min at 600 rpm, centrifuged for 1min at 500 rpm and measured with an Envision reader (PerkinElmer). The amount of relative light units produced by the TEAD reporter is used to calculated percent of inhibition.
The percent of reporter inhibition was calculated in the presence of a positive control inhibitor (100% inhibition) versus a condition with the presence of the vehicle basal activity of the reporter (0% inhibition). The ability of a test compound to inhibit this activity was determined as:
Percentage inhibition=[1-((RLU determined in the presence of vehicle—RLU determined for sample with test compound present) divided by (RLU determined in the presence of vehicle — RLU determined for sample with positive control inhibitor))] * 100
The activities of the example compounds tested are depicted in the table below. The activity ranges A, B and C refer to EC50 values in the reporter gene assay as described as follows: “A”: EC50 <1 μM; “B” : 1 μM≤EC50≤20 μM and “C” : EC50>20 μM, NT=not tested.

Row | EC50 | EC50 (Homo sapiens, HEK-293T, 24 h) | Compound
1 | < 1 µM |  | C=CC(=O)NCC1CN(c2ccc(C(F)(F)F)cc2)c2cnc(C(F)(F)F)n2C1 (single isomer, unassigned) [Cpd. No. 094-En2, (R)- or (S)-N-((6-(trifluoromethyl)-1-(4-(trifluoromethyl)phenyl)-1,2,3,4-tetrahydroimidazo[1,5-a]pyrimidin-3-yl)methyl)acrylamide]
2 |  | < 1 µM | C=CC(=O)NCC1CN(c2cccc(C(F)(F)F)c2)c2ccnn2C1 (stereo not drawn) [Cpd. No. 003, N-((4-(3-(trifluoromethyl)phenyl)-4,5,6,7-tetrahydropyrazolo[1,5-a]pyrimidin-6-yl)methyl)acrylamide]
3 |  | < 1 µM | C=CC(=O)NCC1CN(c2cccc(F)c2)c2ccnn2C1 (stereo not drawn) [Cpd. No. 004, N-((4-(3-fluorophenyl)-4,5,6,7-tetrahydropyrazolo[1,5-a]pyrimidin-6-yl)methyl)acrylamide]
4 |  | < 1 µM | C=CC(=O)NCC1CN(c2ccc(F)cc2)c2ccnn2C1 (stereo not drawn) [Cpd. No. 006, N-((4-(4-fluorophenyl)-4,5,6,7-tetrahydropyrazolo[1,5-a]pyrimidin-6-yl)methyl)acrylamide]
5 |  | < 1 µM | C=CC(=O)NCC1CN(c2ccc(C(F)F)cc2)c2ccnn2C1 (stereo not drawn) [Cpd. No. 009, N-((4-(4-(difluoromethyl)phenyl)-4,5,6,7-tetrahydropyrazolo[1,5-a]pyrimidin-6-yl)methyl)acrylamide]
6 | < 1 µM |  | C=CC(=O)NCC1CN(c2ccc(C(F)F)nc2)c2ccnn2C1 (stereo not drawn) [Cpd. No. 010, N-((4-(6-(difluoromethyl)pyridin-3-yl)-4,5,6,7-tetrahydropyrazolo[1,5-a]pyrimidin-6-yl)methyl)acrylamide]
7 | 1 to 20 µM |  | C=CC(=O)NCC1CN(c2ccc(-c3ccccc3)cc2)c2ccnn2C1 (stereo not drawn) [Cpd. No. 017, N-((4-([1,1′-biphenyl]-4-yl)-4,5,6,7-tetrahydropyrazolo[1,5-a]pyrimidin-6-yl)methyl)acrylamide]
8 |  | < 1 µM | C=CC(=O)NCC1CN(c2ccc(OC(F)(F)F)c(F)c2)c2ccnn2C1 (stereo not drawn) [Cpd. No. 018, N-((4-(3-fluoro-4-(trifluoromethoxy)phenyl)-4,5,6,7-tetrahydropyrazolo[1,5-a]pyrimidin-6-yl)methyl)acrylamide]
9 |  | < 1 µM | C=CC(=O)NCC1CN(c2ccc(SC(F)(F)F)cc2)c2ccnn2C1 (stereo not drawn) [Cpd. No. 020, N-((4-(4-((trifluoromethyl)thio)phenyl)-4,5,6,7-tetrahydropyrazolo[1,5-a]pyrimidin-6-yl)methyl)acrylamide]
10 |  | > 20 µM | C=CC(=O)NCC1CN(c2cnn(C(F)F)c2)c2ccnn2C1 (stereo not drawn) [Cpd. No. 025, N-((4-(1-(difluoromethyl)-1H-pyrazol-4-yl)-4,5,6,7-tetrahydropyrazolo[1,5-a]pyrimidin-6-yl)methyl)acrylamide]
11 | < 1 µM |  | CCC(=O)NCC1CN(c2ccc(C(F)(F)F)cc2)c2ccnn2C1 (stereo not drawn) [Cpd. No. 028, N-((4-(4-(trifluoromethyl)phenyl)-4,5,6,7-tetrahydropyrazolo[1,5-a]pyrimidin-6-yl)methyl)propionamide]
12 |  | < 1 µM | C=CC(=O)NCC1CN(c2ccc(OC(F)(F)F)cc2)c2cc(C)nn2C1 (stereo not drawn) [Cpd. No. 030, N-((2-methyl-4-(4-(trifluoromethoxy)phenyl)-4,5,6,7-tetrahydropyrazolo[1,5-a]pyrimidin-6-yl)methyl)acrylamide]
13 |  | < 1 µM | C=CC(=O)NCC1CN(c2ccc(C(F)(F)F)cc2)c2cc(C#N)nn2C1 (stereo not drawn) [Cpd. No. 033, N-((2-cyano-4-(4-(trifluoromethyl)phenyl)-4,5,6,7-tetrahydropyrazolo[1,5-a]pyrimidin-6-yl)methyl)acrylamide]
14 |  | < 1 µM | C#Cc1ccc(N2CC(CNC(=O)C=C)Cn3nccc32)cc1 (stereo not drawn) [Cpd. No. 036, N-((4-(4-ethynylphenyl)-4,5,6,7-tetrahydropyrazolo[1,5-a]pyrimidin-6-yl)methyl)acrylamide]
15 |  | < 1 µM | C=CC(=O)NCC1CN(C2CCCCC2)c2ccnn2C1 (stereo not drawn) [Cpd. No. 037, N-((4-cyclohexyl-4,5,6,7-tetrahydropyrazolo[1,5-a]pyrimidin-6-yl)methyl)acrylamide]
16 |  | 1 to 20 µM | CN(C)C/C=C/C(=O)NCC1CN(c2ccc(C(F)(F)F)cc2)c2ccnn2C1 (stereo not drawn) [Cpd. No. 041, (E)-4-(dimethylamino)-N-((4-(4-(trifluoromethyl)phenyl)-4,5,6,7-tetrahydropyrazolo[1,5-a]pyrimidin-6-yl)methyl)but-2-enamide]
17 |  | > 20 µM | N#CCC(=O)NCC1CN(c2ccc(C(F)(F)F)cc2)c2ccnn2C1 (stereo not drawn) [Cpd. No. 042, 2-cyano-N-((4-(4-(trifluoromethyl)phenyl)-4,5,6,7-tetrahydropyrazolo[1,5-a]pyrimidin-6-yl)methyl)acetamide]
18 |  | > 20 µM | CC(=O)N(CC#N)CC1CN(c2ccc(C(F)(F)F)cc2)c2ccnn2C1 (stereo not drawn) [Cpd. No. 043, N-(cyanomethyl)-N-((4-(4-(trifluoromethyl)phenyl)-4,5,6,7-tetrahydropyrazolo[1,5-a]pyrimidin-6-yl)methyl)acetamide]
19 |  | > 20 µM | C#CCNCC1CN(c2ccc(C(F)(F)F)cc2)c2ccnn2C1 (stereo not drawn) [Cpd. No. 044, N-((4-(4-(trifluoromethyl)phenyl)-4,5,6,7-tetrahydropyrazolo[1,5-a]pyrimidin-6-yl)methyl)prop-2-yn-1-amine]
20 | > 20 µM |  | C=CC(=O)NCC1CN(S(=O)(=O)c2ccc(C(F)(F)F)cc2)c2ccnn2C1 (stereo not drawn) [Cpd. No. 045, N-((4-((4-(trifluoromethyl)phenyl)sulfonyl)-4,5,6,7-tetrahydropyrazolo[1,5-a]pyrimidin-6-yl)methyl)acrylamide]
21 | 1 to 20 µM |  | C=CC(=O)NCC1CN(S(=O)(=O)c2ccc(C(F)(F)F)cc2)c2ccnn2C1 (stereo not drawn) [Cpd. No. 045-En1, N-((4-((4-(trifluoromethyl)phenyl)sulfonyl)-4,5,6,7-tetrahydropyrazolo[1,5-a]pyrimidin-6-yl)methyl)acrylamide]
22 | > 20 µM |  | C=CC(=O)NCC1CN(S(=O)(=O)c2ccc(C(F)(F)F)cc2)c2ccnn2C1 (stereo not drawn) [Cpd. No. 045-En2, N-((4-((4-(trifluoromethyl)phenyl)sulfonyl)-4,5,6,7-tetrahydropyrazolo[1,5-a]pyrimidin-6-yl)methyl)acrylamide]
23 |  | 1 to 20 µM | C=CC(=O)NCC1CN(C(=O)C2CCCCC2)c2ccnn2C1 (stereo not drawn) [Cpd. No. 046, N-((4-(cyclohexanecarbonyl)-4,5,6,7-tetrahydropyrazolo[1,5-a]pyrimidin-6-yl)methyl)acrylamide]
24 |  | > 20 µM | C=CC(=O)NCC1CN(C(=O)c2ccccc2)c2ccnn2C1 (stereo not drawn) [Cpd. No. 047, N-((4-benzoyl-4,5,6,7-tetrahydropyrazolo[1,5-a]pyrimidin-6-yl)methyl)acrylamide]
25 |  | > 20 µM | CCC(=O)NCC1CN(Cc2ccc(C(F)(F)F)cc2)c2ccnn2C1 (stereo not drawn) [Cpd. No. 050, N-((4-(4-(trifluoro-methyl)benzyl)-4,5,6,7-tetrahydropyrazolo[1,5-a]pyrimidin-6-yl)-methyl)propionamide]
26 |  | > 20 µM | CS(=O)(=O)NCC1CN(Cc2ccc(C(F)(F)F)cc2)c2ccnn2C1 (stereo not drawn) [Cpd. No. 051, N-((4-(4-(trifluoro-methyl)benzyl)-4,5,6,7-tetrahydropyrazolo[1,5-a]pyrimidin-6-yl)-methyl)methanesulfonamide]
27 |  | > 20 µM | CCC(=O)NCC1CN(Cc2cccc(C(F)(F)F)c2)c2ccnn2C1 (stereo not drawn) [Cpd. No. 053, N-((4-(3-(trifluoro-methyl)benzyl)-4,5,6,7-tetrahydropyrazolo[1,5-a]pyrimidin-6-yl)-methyl)propionamide]
